Assay results as given in US10800752B2, “Substituted naphtho[2,3-b]furans as water-soluble prodrugs for preventing and/or treating cancer” (BOSTON BIOMEDICAL, INC., priority 2015, dated 2020).
Counter-ions that a name gives are not always drawn.

Columns and labels:
[1] = Evaluation of a conversion rate to 2-acetylnaphtho[2,3-b]furan-4,9-dione in human plasma; assay type: in vitro ADME; conditions: Human plasma, 1 umol/L, 37° C., incubation time 120 min
Method: (§1) For test compounds, the decrease rate of the test compounds and the conversion rate thereof to 2-acetylnaphtho[2,3-b]furan-4,9-dione in human plasma, CD1 mouse plasma, and pH 7.4 phosphate buffer solution were measured.
(§2) Test compounds were incubated at the concentration of 1 umol/L in human plasma (cat. no. 12250210, COSMO BIO), CD1 mouse plasma (cat. no. AP3054, KAC), and phosphate buffer solution at 37° C., and removed at predetermined times (0, 5, 10, 30, 60, and 120 minutes). After protein-removing treatment was performed, they are analyzed with LC-MS. It should be noted that the protein-removing treatment used acetonitrile containing: 10% volume of 1 mol/L hydrochloric acid; 1% volume of 46% citric acid; and phenytoin as an internal standard.
(§3) The measurement condition of LC-MS is as described below. LC-MS condition column: Kinetex 2.6 u PFP 100 A 50×2.1 mm Column temperature: 40° C.
(§4) Mobile phase: A: 0.1% formic acid-containing water
(§5) • B: 0.1% formic acid-containing acetonitrile A/B(min): 95/5(0)→5/95(3)→5/95(4)→95/5(4.1)→95/5(6) Flow rate: 0.4 mL/min Detection: ESI (positive mode) Injection volume: 10 uL
In the same way as Example 6, the incubation time was set as 120 minutes later, and the conversion rate of each of various test compounds to 2-acetylnaphtho[2,3-b]furan-4,9-dione in human plasma, CD1 mouse plasma, and pH 7.4 phosphate buffer solution was measured.

Solubility test = conditions: 50 mmol/L glycine buffer solution (pH 2.0), room temperature, 24 hours shaking
Method: A water-soluble prodrug was added into 50 mmol/L glycine buffer solution (pH 2.0). After shaking at room temperature for 24 hours, the mixture was filtered through a membrane filter, and then the filtrate was measured with HPLC.
The measurement condition of HPLC is as described below. HPLC condition column: Acquity UPLC BEH C18, 1.7 um, 50×2.1 mm
Mobile phase: A: 0.1% trifluoroacetic acid-containing water

[2] = Evaluation of a conversion rate to 2-acetylnaphtho[2,3-b]furan-4,9-dione in pH 7.4 phosphate buffer solution; assay type: physicochemical; conditions: Phosphate buffer solution (pH 7.4), 1 umol/L, 37° C., incubation time 120 min
Method: as §1, §2, §3, §4, §5
Measurement values are calculated from the peak area ratio in LC-MS between an internal standard material, phenytoin and an active form, 2-acetylnaphtho[2,3-b]furan-4,9-dione, and are expressed in %.
In the same way as Example 6, the incubation time was set as 120 minutes later, and the conversion rate of each of various test compounds to 2-acetylnaphtho[2,3-b]furan-4,9-dione in human plasma, CD1 mouse plasma, and pH 7.4 phosphate buffer solution was measured. A series of the present compounds were confirmed to be converted to 2-acetylnaphtho[2,3-b]furan-4,9-dione in pH 7.4 phosphate buffer solution in addition to human plasma and CD1 mouse plasma. Therefore, a series of the test compounds of the present invention were confirmed to be converted to the activated form via a route other than an enzymatic conversion.

| Structure (SMILES) | % Measurement value (conversion rate to 2-acetylnaphtho[2,3-b]furan-4,9-dione) [1] | Solubility in pH 2.0 buffer solution (Solubility test) | % Measurement value (conversion rate to 2-acetylnaphtho[2,3-b]furan-4,9-dione) [2] |
| --- | --- | --- | --- |
| CC(=O)c1cc2c(OC(=O)NCCNCCCC(=O)O)c3ccccc3c(OC(=O)NCCNCCCC(=O)O)c2o1.Cl.Cl [Example 42] | 69% | >5.0 mg/mL | 54% |
| CC(=O)c1cc2c(OC(=O)NCCNCCF)c3ccccc3c(OC(=O)NCCNCCF)c2o1.Cl.Cl [Example 43] | 81% | >5.0 mg/mL | 63% |
| CC(=O)c1cc2c(OC(=O)NCCNCC(F)(F)F)c3ccccc3c(OC(=O)NCCNCC(F)(F)F)c2o1.Cl.Cl [Example 45] | 84% | >5.0 mg/mL | 48% |
| CC(=O)c1cc2c(OC(=O)NCCNCCN)c3ccccc3c(OC(=O)NCCNCCN)c2o1.Cl.Cl [Example 46] | 59% | >5.0 mg/mL | 54% |
| COC(=O)CNCCCNC(=O)Oc1c2ccccc2c(OC(=O)NCCCNCC(=O)OC)c2oc(C(C)=O)cc12.Cl.Cl [Example 47] | 92% | >5.0 mg/mL | 65% |
| CC(=O)c1cc2c(OC(=O)NC3CCNC3)c3ccccc3c(OC(=O)NC3CCNC3)c2o1.Cl.Cl (centres unmarked) [Example 48] | 71% | >5.0 mg/mL | 59% |
| CC(=O)c1cc2c(OC(=O)NC3CCCNC3)c3ccccc3c(OC(=O)NC3CCCNC3)c2o1.Cl.Cl (centres unmarked) [Example 49] | 77% | >5.0 mg/mL | 58% |
| CC(=O)c1cc2c(OC(=O)NCCNC(C)C(=O)O)c3ccccc3c(OC(=O)NCCNC(C)C(=O)O)c2o1.Cl.Cl (centres unmarked) [Example 50] | 96% | 0.1 mg/mL | 61% |
| CCC(NCCNC(=O)Oc1c2ccccc2c(OC(=O)NCCNC(CC)C(=O)O)c2oc(C(C)=O)cc12)C(=O)O.Cl.Cl (centres unmarked) [Example 51] | 70% | 0.1 mg/mL | 55% |
| CC(=O)c1cc2c(OC(=O)NCCCNCCN)c3ccccc3c(OC(=O)NCCCNCCN)c2o1.Cl.Cl [Example 52] | 78% | >5.0 mg/mL | 55% |
| CC(=O)c1cc2c(OC(=O)NCCCNCC(F)(F)F)c3ccccc3c(OC(=O)NCCCNCC(F)(F)F)c2o1.Cl.Cl [Example 53] | 100% | >5.0 mg/mL | 41% |
| CC(=O)c1cc2c(OC(=O)NCCNCc3ccccc3)c3ccccc3c(OC(=O)NCCNCc3ccccc3)c2o1.Cl.Cl [Example 55] | 86% | >5.0 mg/mL | 63% |
| CC(=O)c1cc2c(OC(=O)NCCNCCS(=O)(=O)N3CCCCC3)c3ccccc3c(OC(=O)NCCNCCS(=O)(=O)N3CCCCC3)c2o1.Cl.Cl [Example 56] | 63% | 3.3 mg/mL | 30% |
| CC(=O)c1cc2c(OC(=O)NCCNCCS(=O)(=O)N(C)C)c3ccccc3c(OC(=O)NCCNCCS(=O)(=O)N(C)C)c2o1.Cl.Cl [Example 57] | 68% | >5.0 mg/mL | 34% |
| CC(=O)c1cc2c(OC(=O)NCCNCCS(=O)(=O)C(C)C)c3ccccc3c(OC(=O)NCCNCCS(=O)(=O)C(C)C)c2o1.Cl.Cl [Example 58] | 81% | 1.5 mg/mL | 40% |
| CC(=O)c1cc2c(OC(=O)NCCCNCCS(=O)(=O)N(C)C)c3ccccc3c(OC(=O)NCCCNCCS(=O)(=O)N(C)C)c2o1.Cl.Cl [Example 59] | 81% | >5.0 mg/mL | 66% |
| CC(=O)c1cc2c(OC(=O)NCCCNCCS(C)(=O)=O)c3ccccc3c(OC(=O)NCCCNCCS(C)(=O)=O)c2o1.Cl.Cl [Example 60] | 68% | >5.0 mg/mL | 39% |
| CC(=O)c1cc2c(OC(=O)NCCNCCS(C)(=O)=O)c3ccccc3c(OC(=O)NCCNCCS(C)(=O)=O)c2o1.Cl.Cl [Example 61] | 87% | 2.5 mg/mL | 55% |
| CC(=O)c1cc2c(OC(=O)NCCNCC(=O)N3CCC3)c3ccccc3c(OC(=O)NCCNCC(=O)N3CCC3)c2o1.Cl.Cl [Example 62] | 65% | >5.0 mg/mL | 37% |
| CC(=O)c1cc2c(OC(=O)NCCCNCC(=O)N3CCC3)c3ccccc3c(OC(=O)NCCCNCC(=O)N3CCC3)c2o1.Cl.Cl [Example 63] | 59% | >5.0 mg/mL | 51% |
| CC(=O)c1cc2c(OC(=O)NCCCNCC(=O)NCC(=O)O)c3ccccc3c(OC(=O)NCCCNCC(=O)NCC(=O)O)c2o1.Cl.Cl [Example 64] | 57% | >5.0 mg/mL | 40% |
| CC(=O)c1cc2c(OC(=O)NCCNCCOC(N)=O)c3ccccc3c(OC(=O)NCCNCCOC(N)=O)c2o1.Cl.Cl [Example 65] | 81% | >5.0 mg/mL | 73% |
| CC(=O)c1cc2c(OC(=O)NCCCNCCOC(N)=O)c3ccccc3c(OC(=O)NCCCNCCOC(N)=O)c2o1.Cl.Cl [Example 66] | 59% | >5.0 mg/mL | 44% |
| COC(=O)NCCNCCNC(=O)Oc1c2ccccc2c(OC(=O)NCCNCCNC(=O)OC)c2oc(C(C)=O)cc12.Cl.Cl [Example 67] | 78% | >5.0 mg/mL | 60% |
| COC(=O)NCCNCCCNC(=O)Oc1c2ccccc2c(OC(=O)NCCCNCCNC(=O)OC)c2oc(C(C)=O)cc12.Cl.Cl [Example 68] | 73% | >5.0 mg/mL | 59% |
| COC(=O)OCCNCCNC(=O)Oc1c2ccccc2c(OC(=O)NCCNCCOC(=O)OC)c2oc(C(C)=O)cc12.Cl.Cl [Example 69] | 90% | >5.0 mg/mL | 71% |
| COC(=O)OCCNCCCNC(=O)Oc1c2ccccc2c(OC(=O)NCCCNCCOC(=O)OC)c2oc(C(C)=O)cc12.Cl.Cl [Example 70] | 66% | >5.0 mg/mL | 48% |
| COC(=O)[C@@H](N)CCNC(=O)Oc1c2ccccc2c(OC(=O)NCC[C@H](N)C(=O)OC)c2oc(C(C)=O)cc12 [Example 108, Dimethyl 4,4′-((((2-acetylnaphtho[2,3-b]furan-4,9-diyl)bis(oxy))bis(carbonyl))bis(azanediyl))(2S,2′S)-bis(2-aminobutanoate)ditrifluoroacetate salt] |  | >5.0 mg/mL | 44% |
